Experimental findings from patent US20090227587A1, “Pyrimidines as inhibitors of phosphoinositide-3-kinases (PI3K)” (Warner-Lambert Company LLC, priority 2003, published 2009) are described below.

Structures are written as SMILES.

For experiment [1], the system named is DBA/1 LacJ mice, collagen induced arthritis. Nature of the experiment: Murine collagen induced arthritis. The experiment is classed as in vivo. To be noted: 30 mg/kg q.d. oral gavage for two weeks beginning on day 27, female DBA/1 LacJ mice. The procedure: Bovine type II collagen (University of Utah) was diluted with 0.01N acetic acid to a concentration of 2 mg/mL and emulsified with an equal volume of Freund's complete adjuvant (Difco, Detroit, Mich.) supplemented with 1 mg/mL Mycobacterium tuberculosis Hra37. Age-matched (8-12 weeks) female DBA/1 LacJ mice (Jackson Laboratories, Bar Harbor, Me.) were immunized with 100 μL of emulsion (100 μg collagen) intradermally at the base of the tail. On Day 28 after immunization, the mice were given 50 μg Lipopolysaccharide (Sigma Aldrich, St Louis, Mo.) intraperitoneally (IP) in 100 μL saline. The compound of Example 1 (4-Cycloheptyloxy-2-morpholin-4-yl-pyrimidine-5-carboxylic acid (2H-tetrazol-5-yl)-amide) was dosed at 30 mg/kg q.d. by oral gavage for two weeks beginning on day 27. The development of arthritis was assessed on Days 27, 31, 34, 37, and 41. A clinical score was given to each limb using the following scale: (0) normal, (1) erythema and edema, (2) joint distortion, (3) joint ankylosis. Edema measurements on front paws, rear paws, and ankles were taken using constant tension calipers (Dyer, Lancaster, Pa.). The compound of Example 1 at 30 mg/kg q.d. inhibited paw edema in this model by 52%, and clinical score by 35%.

Experiment [2] concerns the target T1, p101/p110γ protein (PI3Kγ) (Homo sapiens, UniProt P48736).
T1 construct: HA; made in house; host or cells: Spodoptera frugiperda (Sf9) cells, baculovirus co-infection
Nature of the experiment: PI3Kγ in vitro kinase assay. The experiment is classed as biochemical. To be noted: purified recombinant p101/p110γ with G protein β1/γ2 subunits, 20 μM ATP, PIP2 lipid micelles. The procedure: Spodtera frugiperda cells, grown in ESF921 media, were co-infected with baculovirus expressing a glu-tagged p101 and baculovirus expressing an HA-tagged p110γ, at a 3:1 ratio of p101 baculovirus to p110γ baculovirus. Sf9 cells were grown to 1×10^7 total cells/mL in 10 L bioreactors and harvested 48-72 hours post infection. Samples of infected cells were then tested for expression of p101/p110γ PI3 kinase by immunoprecipitation and Western Blot analysis methods (see below).
To purify PI3Kγ, 4 volumes of room temperature hypotonic lysis buffer (1 mM MgCl2, 1 mM DTT, 5 mM EGTA, 1 mM Pefabloc, 0.5 μM aprotinin, 5 μM leupeptin, 2 μM pepstatin, 5 μM E64, pH 8) per gram of cell paste, was poured onto frozen cell pellets with stirring, then lysed in a nitrogen “bomb” at 400 psi (599HC T316, Parr Instrument Co, Moline, Ill.). NaCl was added to 150 mM, and sodium cholate was added to 1% and mixed for another 45 minutes. The lysates were clarified by centrifugation for 25 minutes at 14,000 rpm. The lysates were then loaded over anti-glu-linked Protein-G Sepaharose beads (Covance Research Products, Richmond, Calif.) using 20 mL resin/50 g cell paste. The column was washed with 15 volumes of wash buffer (1 mM DTT, 0.2 mM EGTA, 1 mM Pefabloc, 0.5 μM aprotinin, 5 μM leupeptin, 2 μM pepstatin, 5 μM E64, 150 mM NaCl, 1% sodium cholate, pH 8). PI3Kγ was eluted with 6 column volumes of wash buffer that contain 100 μg/mL of a peptide that competes for binding of the glu tag. The column fractions with the eluted protein (determined by taking OD280 readings) were collected and dialyzed in 0.2 mM EGTA, 1 mM DTT, 1 mM Pefabloc, 5 μM leupeptin, 0.5% sodium cholate, 150 mM NaCl, and 50% glycerol, pH 8. The fractions were stored at −80° C. until further use.
Spodtera frugiperda cells were coinfected with baculovirus expressing a glu-tagged G protein β1 and baculovirus expressing a G protein […], at a 1:1 ratio of glu-tagged G protein […] baculovirus to G protein β2 baculovirus. Sf9 cells are grown in 10 L bioreactors and harvested 48-72 hours post infection. Samples of infected cells were tested for G protein β1/β2 expression by Western Blot analysis, as described below. Cell lysates were homogenized and loaded onto a column of glu-tagged beads as in Biological Example 1 and competed off the column with a glu peptide and processed as described in Biological Example 1.
The inhibitory properties of the compounds in Table 1 were assayed in an in vitro PI3K assay. In a 96-well polypropylene plate, each well was spotted with 2 μL of 50 times the desired final concentration of compound in DMSO. Purified recombinant p101/p110γ protein (0.03 μg; ˜2.7 nM) and G protein β1/γ2 subunits (0.09 μg; ˜57.7 nM) for each reaction was combined in the assay buffer (30 mM HEPES, 100 mM NaCl, 1 mM EGTA, and 1 mM DTT). ATP and [γ-^32P-ATP] (0.09 μCi) were added to this mixture so that the final ATP concentration in the reaction was 20 μM. Lipid micelles were formed by sonicating phosphatidylinositol-4,5-diphosphate (PIP2), phosphatidylethanolamine (PE), and Na-cholate in the assay buffer for 10 minutes, adding MgCl2 and incubating on ice for 20 minutes, for final concentrations of 25 μM PIP2, 300 μM PE, 0.02% Na-cholate, and 10 mM MgCl2 in the reaction. The reactions were started by adding equal volumes lipid and enzyme mixture in a total volume of 50 μL, allowed to run for 20 minutes at room temperature, and stopped with 100 μL 75 mM H3PO4. The lipid product was transferred to a glass fiber filter plate and washed with 75 mM H3PO4 several times. The presence of radioactive lipid product (PIP3) was measured by adding Wallac Optiphase mix to each well and counting in a Wallac 1450 Trilux plate reader (PerkinElmer Life Sciences Inc., Boston, Mass. 02118). The IC50 for each compound tested is reported in μM in the Tables above.

For experiment [3], the system named is Lewis rats, streptococcal cell wall-induced paw edema. Nature of the experiment: SCW streptococcal cell wall-induced paw edema. The experiment is classed as in vivo. To be noted: 10, 30 and 100 mg/kg q.d. oral gavage for four days beginning on day 21, female Lewis rats. How it is done: Female Lewis rats (˜150 g) received 6 μg SCW in 10 μl Dulbecco's PBS by an intraarticular injection to the right tibiotalar joint on day 0. On day 21, the recurrence response was initiated with 100 μg SCW (250 μl, i.v.). Vehicle (0.5% hydroxypropylmethylcellulose/0.2% Tween 80) or the compound of Example 1 (4-Cycloheptyloxy-2-morpholin-4-yl-pyrimidine-5-carboxylic acid (2H-tetrazol-5-yl)-amide) was given orally (10 ml/kg volume), q.d., 1 hr prior to SCW, i.v., and on subsequent days. Baseline volumes of the sensitized hind paw were measured by a mercury displacement plethysmometer before disease initiation on day 21, and subtracted from subsequent assessments (made 24 hrs after each dose) to determine the Δ value (the difference between paw volume prior to disease initiation on day 21 and the paw volume 24 hours after each dose). The compound of Example 1 was dosed at 10, 30 and 100 mg/kg q.d. by oral gavage for four days beginning on day 21.

T1 sequence (P48736 whole entry, species assumed): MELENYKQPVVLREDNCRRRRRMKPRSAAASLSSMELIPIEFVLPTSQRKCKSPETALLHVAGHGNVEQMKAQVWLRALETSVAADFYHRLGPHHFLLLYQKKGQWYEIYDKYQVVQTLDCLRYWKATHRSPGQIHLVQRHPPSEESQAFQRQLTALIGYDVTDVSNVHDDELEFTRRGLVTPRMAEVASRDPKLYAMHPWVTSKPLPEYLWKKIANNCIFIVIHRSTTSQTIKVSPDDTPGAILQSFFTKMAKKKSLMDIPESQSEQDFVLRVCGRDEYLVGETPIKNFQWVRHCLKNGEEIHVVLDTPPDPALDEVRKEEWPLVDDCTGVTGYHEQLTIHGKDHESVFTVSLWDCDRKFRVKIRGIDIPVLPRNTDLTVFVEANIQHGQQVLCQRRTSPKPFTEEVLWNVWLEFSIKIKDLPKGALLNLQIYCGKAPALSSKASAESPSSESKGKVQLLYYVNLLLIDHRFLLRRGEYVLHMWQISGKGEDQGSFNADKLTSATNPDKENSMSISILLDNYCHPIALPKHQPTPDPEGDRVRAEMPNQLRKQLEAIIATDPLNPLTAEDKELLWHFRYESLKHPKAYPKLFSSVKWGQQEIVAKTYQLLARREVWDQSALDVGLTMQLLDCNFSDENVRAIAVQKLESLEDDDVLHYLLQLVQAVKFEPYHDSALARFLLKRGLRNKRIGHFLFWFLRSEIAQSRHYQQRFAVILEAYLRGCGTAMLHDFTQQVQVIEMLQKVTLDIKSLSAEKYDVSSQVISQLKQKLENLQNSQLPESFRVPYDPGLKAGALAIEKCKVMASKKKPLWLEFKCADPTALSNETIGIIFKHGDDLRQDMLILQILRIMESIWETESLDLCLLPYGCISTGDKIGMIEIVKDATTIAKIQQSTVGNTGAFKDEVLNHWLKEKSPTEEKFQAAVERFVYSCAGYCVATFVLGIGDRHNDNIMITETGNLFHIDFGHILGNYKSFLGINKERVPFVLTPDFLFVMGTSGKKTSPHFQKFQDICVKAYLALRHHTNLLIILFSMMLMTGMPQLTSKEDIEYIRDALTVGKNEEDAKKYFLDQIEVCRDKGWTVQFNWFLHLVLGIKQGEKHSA
T1 sequence (Q8WYR1 whole entry partner, species assumed): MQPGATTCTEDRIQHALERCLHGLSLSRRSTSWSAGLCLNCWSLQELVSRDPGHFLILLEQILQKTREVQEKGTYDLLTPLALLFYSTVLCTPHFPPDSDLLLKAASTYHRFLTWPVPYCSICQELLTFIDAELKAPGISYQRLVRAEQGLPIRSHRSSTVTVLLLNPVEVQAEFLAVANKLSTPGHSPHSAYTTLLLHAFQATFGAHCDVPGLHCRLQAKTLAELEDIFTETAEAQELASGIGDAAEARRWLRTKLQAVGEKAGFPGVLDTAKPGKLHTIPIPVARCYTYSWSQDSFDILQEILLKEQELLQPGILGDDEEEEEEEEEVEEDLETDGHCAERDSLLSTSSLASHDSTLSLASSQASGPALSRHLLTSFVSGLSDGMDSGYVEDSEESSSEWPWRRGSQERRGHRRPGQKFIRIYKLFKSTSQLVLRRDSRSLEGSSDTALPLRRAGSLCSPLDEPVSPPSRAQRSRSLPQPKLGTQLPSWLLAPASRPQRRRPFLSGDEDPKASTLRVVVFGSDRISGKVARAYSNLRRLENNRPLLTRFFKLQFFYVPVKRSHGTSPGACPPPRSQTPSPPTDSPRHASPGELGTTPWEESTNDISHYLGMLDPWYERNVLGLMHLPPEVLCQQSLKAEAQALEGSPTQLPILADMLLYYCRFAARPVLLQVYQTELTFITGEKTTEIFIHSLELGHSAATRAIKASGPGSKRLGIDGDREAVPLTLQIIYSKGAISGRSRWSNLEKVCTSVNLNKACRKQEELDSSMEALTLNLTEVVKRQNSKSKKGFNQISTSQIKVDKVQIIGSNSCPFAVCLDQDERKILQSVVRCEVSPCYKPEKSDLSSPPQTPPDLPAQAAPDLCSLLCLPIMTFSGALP

By IC50 is commonly meant the concentration at which inhibition is half-maximal. Regarding `O=C(Nc1nn[nH]n1)c1cnc(N2CCOCC2)nc1OC1CCCCCC1` [Example 1, 4-Cycloheptyloxy-2-morpholin-4-yl-pyrimidine-5-carboxylic acid (2H-tetrazol-5-yl)-amide], in experiment [1], the “inhibition of clinical score” value is 35% and the “inhibition of paw edema” value is on record as 52%. Also, in experiment [2], the IC50 came out at 197 nM. In experiment [3], the “ID50 for inhibition of paw edema” value was 16.3 mg/kg.
